# Data published in paper PMC7345095, “New Synthetic Nitro-Pyrrolomycins as Promising Antibacterial and Anticancer Agents” (Antibiotics, 2020).
# Like-named read-outs stand apart in the source and are kept apart here.
# Tests used:
# [1] = tested on: Pseudomonas aeruginosa ATCC 10145; assay: Kill curve assay (MBC), planktonic cells; assay type: cell-based; conditions: for MBC: read-out: MBC P. aeruginosa
# Procedure: (§1) Kill curve assays were performed to test the antimicrobial efficacy of pyrrolomycins (i.e., 1, 2, 5a, 5b, 5c, 5d), as well as that of the natural PM-C against the indicator pathogen Staphylococcus aureus ATCC 25923 and Pseudomonas aeruginosa ATCC 10145 strains. Briefly, a single colony of either S. aureus or P. aeruginosa strains was picked up and pre-cultivated (ca. 16 h) at 37 °C with shacking (160 rpm) in Luria Bertani medium (hereinafter named as LB and composed of (g L^−1): sodium chloride, 10; yeast extract, 5; tryptone, 10). The same medium was solidified by adding 15 g L^−1 of bacteriological agar when needed. Bacterial cells were then inoculated (1% v/v) in LB medium amended with increasing concentrations—ranging from 0 to 100 μM as initial concentration—of each pyrrolomycin tested, challenging the cultures for 24 h and incubating them as reported above. The actual number of viable colony forming units per milliliter of culture (CFU mL^−1) of each bacterial strain, who survived the challenge exerted by pyrrolomycins, was evaluated through the spot plate count method and compared to unchallenged cultures, as reported elsewhere. The data are reported as average values (n = 3) of CFU mL^−1 in the logarithmic (Log10) scale with standard deviation (SD). Evaluation of the MIC of PM-5c, and -5d against S. aureus and of PM-5d against P. aeruginosa was performed by incubating 1% (v/v) of an overnight bacterial suspension in LB medium in presence of increasing concentrations of the PMs. As a control, MIC of PM-C was measured. At the time of the inoculum and after overnight challenge, the absorbance of the cultures at 600 nm, which is an indirect way to measure the bacterial cell growth, was registered using a Spark™ 10 M multimode microplate reader measuring. The experiment was carried out in triplicate, being the absorbance corrected by subtracting that of the culture medium amended with the corresponding PM tested.
# [2] = tested on: Staphylococcus aureus ATCC 25923; assay: Kill curve assay (MBC), planktonic cells; assay type: cell-based
# Procedure: as §1
# [3] = tested on: P. aeruginosa; assay: MIC by absorbance at 600 nm after overnight challenge; assay type: cell-based; conditions: Pseudomonas aeruginosa, LB medium, absorbance 600 nm
# Procedure: as §1
# [4] = tested on: S. aureus; assay: as above; assay type: cell-based; conditions: Staphylococcus aureus, LB medium, absorbance 600 nm
# Procedure: as §1
# [5] = tested on: HCT116 colon cancer cell line; assay: MTT viability assay; assay type: cell-based
# Procedure: (§2) The HCT116 colon cancer cell line (ATCC® CCL-247™), the MCF 7 breast cancer cell line (ATCC® HTB-22™) and the hTERT RPE-1 -immortalized retinal pigment epithelial cell line (ATCC® CRL-4000™) used in this study were cultured in DMEM medium (Gibco, Paisley, UK), supplemented with 1% glutamine, 10% heat-inactivated fetal bovine serum and 100U/mL penicillin and 100 μg/mL streptomycin, as already described, and maintained at 37 °C and 5% CO2.
# (§3) Cells were plated at 5 × 10^3 cells/well in 96-well plates and incubated for 24 h prior to treatment for further 48 h of different concentrations of PMs. After incubation, a sample of 20 μL of Thiazolyl Blue Tetrazolium Bromide (5 mg mL^−1) in PBS was added to each well and cultured for 2h at 37 °C in CO2 incubator. After removing the medium containing MTT and three washes with PBS, 100 μL of warm DMSO was added to each well to dissolve formazan. Samples were shaken for 10 min, at room temperature in the dark, and the absorbance was recorded at 570 nm using a microplate reader (Spark® 20M Tecan Trading AG, Switzerland). Percentage of cell viability with respect to untreated control cells (vehicle control) was calculated after subtraction of the blank. The IC50 values, that is the concentration necessary to inhibit the 50% of cell growth, was calculated using a dose-response model, obtained from sigmoidal fitting of response curves of percent inhibition versus logarithmic concentration of PMs, using Graph Pad Prism software. Each result represents the mean value of three different experiments performed in triplicate.
# [6] = tested on: MCF 7 breast cancer cell line; assay: MTT viability assay; assay type: cell-based
# Procedure: as §2, §3
# [7] = tested on: hTERT RPE-1 immortalized retinal pigment epithelial cell line; assay: MTT viability assay (cytotoxicity on normal cells); assay type: cell-based; conditions: hTERT-RPE1, 48 h, read-out: IC50 hTERT-RPE-1
# Procedure: as §2, §3
# [8] = tested on: HCT116 and MCF 7 cancer cell lines; assay: MTT viability assay, statements over both cancer cell lines; assay type: cell-based
# Procedure: as §2, §3
# [9] = tested on: P. aeruginosa cells; assay: AO/EB double staining of bacterial cells; assay type: cell-based, Pseudomonas aeruginosa; conditions: 100 μM, 24 h
# Procedure: It is noteworthy to highlight that the main difference between PM-C and 5d relies only on the presence of the nitro group in the position R3 of the latter, which is likely responsible for its enhanced electronegativity and, therefore, better biological reactivity over PM-C.
# Figure 3 Fluorescence micrographs of P. aeruginosa cells treated for 24 h with 100 μM of PM-C or 10 μM of PM 5d after AO/EB double staining. Control represents untreated cells. Green (AO) are viable cells, red (EB) dead cells, and orange vital cells with damaged membranes.
# [10] = tested on: HCT116 cells; assay: Morphological assessment, phase contrast inverted microscope; assay type: cell-based; conditions: 0.1 µM (sub-inhibitory), 24 h
# Procedure: HCT116 cells were seeded in 24 well culture plates with a cell density of 1 × 10^5 cells/well. After 24 h cells were incubated for 24 h with different concentration of the selected PMs, and observed under a phase contrast inverted microscope (Carl Zeiss) at 200× magnification, for morphological changes assessment.
# [11] = tested on: HCT116 cells; assay: Acridine orange/ethidium bromide (AO/EB) staining; assay type: cell-based; conditions: treated at IC50 for 24 and 48 h
# Text: Cells were immediately observed under a fluorescent microscopy (Carl Zeiss) at 630 × magnification.
# [12] = tested on: Escherichia coli; parameters: method as in PMID 31405863, PMID 15730262; conditions: natural PMs; cited from earlier work
smiles,measurement,setting,value
"O=C(c1cc(Cl)c(Cl)[nH]1)c1cc(Cl)cc(Cl)c1O [PM-C, reference compound]",MBC,"[1]; Pseudomonas aeruginosa, ATCC10145, 24 h",> 100 µM
same,"log reduction in the number of viable CFUs, P. aeruginosa","[1]; highest concentration tested 100 μM, 24 h",did not display any antimicrobial effect
same,MBC,"[1]; minimal bactericidal concentration, planktonic cells, 24 h challenge, LB medium",>100 µM
same,MBC,"[2]; Staphylococcus aureus, ATCC25923, 24 h, read-out: MBC S. aureus",90 µM
same,decrease in the number of vital S. aureus cells,"[2]; increasing concentrations up to 80 μM, 24 h",~ 3 log
same,MIC,[3],> 40 µM
same,MIC,[4],1 µM
same,IC50,"[5]; Homo sapiens, HCT-116, 48 h, MTT, 48 h of treatment",800 ± 300 nM
same,"C-SI (Cancer Selectivity Index), HCT116","[5]; ratio of IC50 of normal hTERT-RPE-1 to that of HCT116, first value of the cell",10.4
same,IC50,"[6]; Homo sapiens, MCF7, 48 h, MTT, 48 h of treatment",1500 ± 400 nM
same,"C-SI (Cancer Selectivity Index), MCF 7","[6]; ratio of IC50 of normal hTERT-RPE-1 to that of MCF 7, second value of the cell",5.5
same,IC50,[7],8300 ± 1900 nM
same,IC50,"[8]; MTT, 48 h challenge, group statement, read-out: IC50, regardless of the cancer cell line (HCT116, MCF 7)",800 to 2250 nM
same,"C-SI, mean value among the two cancer cell lines",[8]; mean of HCT116 and MCF 7 C-SI,8
same,AO/EB staining colour of P. aeruginosa cells,[9],appeared green
same,morphology of treated HCT116 cells,[10],more fibroblastic and less clumped morphology
same,AO/EB fluorescence of treated HCT116 cells (type of cell death),[11],orange fluorescence
same,MIC against Escherichia coli,[12],more than 300 μM
